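Assay format: 96-well plates, 48-hour exposure. GI50 = concentration required for 50% inhibition of growth.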 The source made the active and inactive calls. Cut-off read from the data, not from the text of the source: active = GI50 up to about 1.1 µM and inactive = higher.
Tests used:
Experiment in all cases: growth of human tumour cells (NCI), 48 h
CAKI-1 = system: CAKI-1
HOP-92 = system: HOP-92
PC-3 = system: PC-3
HL-60 = system: HL-60
OVCAR-8 = system: OVCAR-8
A549 = system: A549
MCF7 = system: MCF7
HCT-116 = system: HCT-116
Hs-578T = system: Hs-578T
SR = system: SR
OVCAR-5 = system: OVCAR-5
T47D = system: T47D
RPMI-8226 = system: RPMI-8226
UACC-62 = system: UACC-62
NCI-H23 = system: NCI-H23
CCRF-CEM = system: CCRF-CEM
LOX IMVI = system: LOX IMVI
U-251 = system: U-251
NCI-H460 = system: NCI-H460
M14 = system: M14
MDA-MB-231 = system: MDA-MB-231
TK-10 = system: TK-10
NCI-H226 = system: NCI-H226
RXF 393 = system: RXF 393
MDA-MB-435 = system: MDA-MB-435
KM12 = system: KM12
OVCAR-3 = system: OVCAR-3
UACC-257 = system: UACC-257
K562 = system: K562
HCT-15 = system: HCT-15
SNB-75 = system: SNB-75
SK-MEL-28 = system: SK-MEL-28
SN12C = system: SN12C
MDA-N = system: MDA-N
DU-145 = system: DU-145
OVCAR-4 = system: OVCAR-4
BT-549 = system: BT-549
SK-MEL-2 = system: SK-MEL-2
SF-295 = system: SF-295
SW-620 = system: SW-620
HCC 2998 = system: HCC 2998
UO-31 = system: UO-31
NCI-H522 = system: NCI-H522
NCI/ADR-RES = system: NCI/ADR-RES
SNB-19 = system: SNB-19
ACHN = system: ACHN
SF-539 = system: SF-539
IGROV-1 = system: IGROV-1
HT-29 = system: HT-29
SF-268 = system: SF-268
COLO 205 = system: COLO 205
Malme-3M = system: Malme-3M
786-0 = system: 786-0
SK-MEL-5 = system: SK-MEL-5
SK-OV-3 = system: SK-OV-3
A498 = system: A498
HOP-62 = system: HOP-62
EKVX = system: EKVX
MOLT-4 = system: MOLT-4

Which results are given for `O=C(O)CCC1(C(=O)O)CCC(=O)c2ccccc21` (centres undefined)?
GI50 (CAKI-1): > 100 µM (inactive); GI50 (HOP-92): > 100 µM (inactive); GI50 (PC-3): > 100 µM (inactive); GI50 (HL-60): > 100 µM (inactive); GI50 (OVCAR-8): > 100 µM (inactive); GI50 (A549): > 100 µM (inactive); GI50 (MCF7): > 100 µM (inactive); GI50 (HCT-116): > 100 µM (inactive); GI50 (Hs-578T): > 100 µM (inactive); GI50 (SR): > 100 µM (inactive); GI50 (OVCAR-5): > 100 µM (inactive); GI50 (T47D): > 100 µM (inactive); GI50 (RPMI-8226): > 100 µM (inactive); GI50 (UACC-62): > 100 µM (inactive); GI50 (NCI-H23): > 100 µM (inactive); GI50 (CCRF-CEM): > 100 µM (inactive); GI50 (LOX IMVI): > 100 µM (inactive); GI50 (U-251): > 100 µM (inactive); GI50 (NCI-H460): > 100 µM (inactive); GI50 (M14): > 100 µM (inactive); GI50 (MDA-MB-231): > 100 µM (inactive); GI50 (TK-10): > 100 µM (inactive); GI50 (NCI-H226): > 100 µM (inactive); GI50 (RXF 393): > 100 µM (inactive); GI50 (MDA-MB-435): > 100 µM (inactive); GI50 (KM12): > 100 µM (inactive); GI50 (OVCAR-3): > 100 µM (inactive); GI50 (UACC-257): > 100 µM (inactive); GI50 (K562): > 100 µM (inactive); GI50 (HCT-15): > 100 µM; GI50 (SNB-75): > 100 µM (inactive); GI50 (SK-MEL-28): > 100 µM (inactive); GI50 (SN12C): > 100 µM (inactive); GI50 (MDA-N): > 100 µM (inactive); GI50 (DU-145): > 100 µM (inactive); GI50 (OVCAR-4): > 100 µM (inactive); GI50 (BT-549): > 100 µM (inactive); GI50 (SK-MEL-2): > 100 µM (inactive); GI50 (SF-295): > 100 µM (inactive); GI50 (SW-620): > 100 µM (inactive); GI50 (HCC 2998): > 100 µM (inactive); GI50 (UO-31): > 100 µM (inactive); GI50 (NCI-H522): > 100 µM (inactive); GI50 (NCI/ADR-RES): > 100 µM (inactive); GI50 (SNB-19): > 100 µM (inactive); GI50 (ACHN): > 100 µM (inactive); GI50 (SF-539): > 100 µM (inactive); GI50 (IGROV-1): > 100 µM (inactive); GI50 (HT-29): > 100 µM (inactive); GI50 (SF-268): > 100 µM (inactive); GI50 (COLO 205): > 100 µM (inactive); GI50 (Malme-3M): > 100 µM (inactive); GI50 (786-0): > 100 µM (inactive); GI50 (SK-MEL-5): > 100 µM (inactive); GI50 (SK-OV-3): > 100 µM (inactive); GI50 (A498): > 100 µM (inactive); GI50 (HOP-62): > 100 µM (inactive)

`C[C@]12CC[C@H]3[C@@H](CCC4=CC(=O)CC[C@@]43C)[C@@H]1CC[C@@H]2C(=O)COS(=O)(=O)c1ccc(Br)cc1` was tested. Which GI50 (CAKI-1) did it give?
The GI50 was 7.76 µM (inactive).

What about the GI50 (HOP-92) of the same molecule?
Its GI50 is 5.94 µM (inactive).

What about the GI50 (PC-3) of the same molecule?
Its GI50 is 8.85 µM (inactive).

And the GI50 (HL-60)?
The GI50 was 4.69 µM (inactive).

And the GI50 (OVCAR-8)?
Its GI50 is 3.61 µM (inactive).

And the GI50 (A549)?
Its GI50 is 18.7 µM (inactive).

And the GI50 (MCF7)?
Its GI50 is 8.15 µM (inactive).

And the GI50 (Hs-578T)?
The GI50 was 20.4 µM (inactive).

What about the GI50 (SR) of the same molecule?
The GI50 was 1.4 µM (inactive).

What about the GI50 (OVCAR-5) of the same molecule?
The GI50 was 18.1 µM (inactive).

And the GI50 (T47D)?
The GI50 was 9.35 µM (inactive).

And the GI50 (RPMI-8226)?
The GI50 was 2.35 µM (inactive).

And the GI50 (UACC-62)?
The GI50 was 16 µM (inactive).

And the GI50 (NCI-H23)?
Its GI50 is 2.37 µM (inactive).

What about the GI50 (CCRF-CEM) of the same molecule?
The GI50 was 0.207 µM (active).

What about the GI50 (LOX IMVI) of the same molecule?
Its GI50 is 1.61 µM (inactive).

And the GI50 (U-251)?
The GI50 was 8.93 µM (inactive).

And the GI50 (NCI-H460)?
The GI50 was 10.1 µM (inactive).

What about the GI50 (M14) of the same molecule?
Its GI50 is 6.55 µM (inactive).

What about the GI50 (MDA-MB-231) of the same molecule?
Its GI50 is 6.49 µM (inactive).

What about the GI50 (TK-10) of the same molecule?
The GI50 was 18.3 µM (inactive).

And the GI50 (NCI-H226)?
Its GI50 is 13.2 µM (inactive).

And the GI50 (RXF 393)?
Its GI50 is 14.5 µM (inactive).

What about the GI50 (EKVX) of the same molecule?
The GI50 was 7.67 µM (inactive).

And the GI50 (MDA-MB-435)?
The GI50 was 9.55 µM (inactive).

And the GI50 (KM12)?
Its GI50 is 15.1 µM (inactive).

What about the GI50 (OVCAR-3) of the same molecule?
The GI50 was 6.43 µM (inactive).

And the GI50 (UACC-257)?
The GI50 was 13.7 µM (inactive).

What about the GI50 (K562) of the same molecule?
The GI50 was 4.09 µM (inactive).

And the GI50 (HCT-15)?
Its GI50 is 14.2 µM.

What about the GI50 (SNB-75) of the same molecule?
Its GI50 is 17.5 µM (inactive).

And the GI50 (SK-MEL-28)?
Its GI50 is 21 µM (inactive).

And the GI50 (SN12C)?
Its GI50 is 5.97 µM (inactive).

What about the GI50 (MDA-N) of the same molecule?
Its GI50 is 0.379 µM (active).

And the GI50 (DU-145)?
Its GI50 is 16.8 µM (inactive).

And the GI50 (OVCAR-4)?
Its GI50 is 4.5 µM (inactive).

And the GI50 (BT-549)?
Its GI50 is 10 µM (inactive).

And the GI50 (SK-MEL-2)?
Its GI50 is 8.38 µM (inactive).

What about the GI50 (SF-295) of the same molecule?
The GI50 was 19.3 µM (inactive).

What about the GI50 (SW-620) of the same molecule?
The GI50 was 9.4 µM (inactive).

What about the GI50 (HCC 2998) of the same molecule?
Its GI50 is 2.09 µM (inactive).

What about the GI50 (UO-31) of the same molecule?
Its GI50 is 1.7 µM (inactive).

What about the GI50 (NCI-H522) of the same molecule?
The GI50 was 1.59 µM (inactive).

What about the GI50 (NCI/ADR-RES) of the same molecule?
Its GI50 is 10.6 µM (inactive).

And the GI50 (SNB-19)?
The GI50 was 19.5 µM (inactive).

And the GI50 (ACHN)?
Its GI50 is 10.9 µM (inactive).

And the GI50 (SF-539)?
Its GI50 is 9.25 µM (inactive).

What about the GI50 (IGROV-1) of the same molecule?
The GI50 was 1.6 µM (inactive).

What about the GI50 (HT-29) of the same molecule?
The GI50 was 11.8 µM (inactive).

And the GI50 (SF-268)?
Its GI50 is 8.93 µM (inactive).

And the GI50 (COLO 205)?
Its GI50 is 20.5 µM (inactive).

And the GI50 (Malme-3M)?
The GI50 was 3.49 µM (inactive).

What about the GI50 (SK-MEL-5) of the same molecule?
Its GI50 is 8.77 µM (inactive).

And the GI50 (MOLT-4)?
Its GI50 is 1.41 µM (inactive).

What about the GI50 (SK-OV-3) of the same molecule?
The GI50 was 15.1 µM (inactive).

And the GI50 (A498)?
The GI50 was 20.2 µM (inactive).

What about the GI50 (HOP-62) of the same molecule?
The GI50 was 17 µM (inactive).

From ChEMBL document CHEMBL1201862, “PubChem BioAssay data set” (2004)
